Assay results reported in patent publication US4104384A, “1-(2'-Aroyl eth-1'yl) 2-(4"-acetamido piperazine-1"yl methyl) benzimidazoles and their therapeutical applications” (priority 1975, dated 1978).

Key:
Shay's ulcer = experiment: Anti-ulcerous properties: ulceration caused by ligature of the pylorus (Shay's ulcers), intraduodenal; type: in vivo; conditions: rat, read-out: Percentage reduction of Shay's ulcer; for inhibition in vivo at 10 mg/kg: 10 mg/kg/i.d.; for inhibition in vivo at 14.8 mg/kg: 14.8 mg/kg/i.d.; for inhibition in vivo at 7.3 mg/kg: 7.3 mg/kg/i.d.
From the text: Furthermore, the compounds of formula (I) administered intraduodenally reduce the ulceration area caused by ligature of the pylorus of a rat (Shay's ulcers).

stress ulcers = experiment: Anti-ulcerous properties: ulcerations in rat under stress for 7 hours, oral; type: in vivo; conditions: for inhibition in vivo at 7.4 mg/kg: 7.4 mg/kg/p.o.; for inhibition in vivo at 20 mg/kg: 20 mg/kg/p.o.
gastric secretion = experiment: Gastric antisecretory properties: gastric secretion after Shay ligature, intraduodenal; type: in vivo; conditions: rat, read-out: Reduction of volume of gastric secretion; for inhibition in vivo at 1.5 mg/kg: 1.5 mg/kg/i.d.; for inhibition in vivo at 10 mg/kg: 10 mg/kg/i.d.
From the text: Administered intraduodenally to a rat, the compounds of formula (I) are capable of reducing gastric secretion measured after Shay ligature.

[1] = tested on: bronchoconstriction caused by acetylcholine; experiment: Anticholinergic and antibronchoconstrictive: bronchoconstriction by intravenous acetylcholine, Konzett's method; type: in vivo; conditions: Cavia porcellus, guinea-pig, read-out: Percentage inhibition of the bronchoconstriction
From the text: Injected intravenously or intraduodenally, the compounds of formula (I) are capable of opposing bronchoconstriction caused in a guinea-pig by intravenous injection of acetylcholine and evaluated by Konzett's method.

painful stretchings = experiment: Analgesic: painful stretchings following intraperitoneal injection of acetic acid; type: in vivo; conditions: po, mouse, read-out: Percentage diminution painful stretchings; for inhibition in vivo at 50 mg/kg: 50 mg/kg/p.o.
From the text: The compounds of formula (I), administered orally to a mouse, are capable of reducing the number of painful stretchings following intraperitioneal injection of acetic acid.

[2] = Acute toxicity, lethal dose 50; conditions: mouse, in vivo, po, read-out: Lethal dose 50 (mouse) / DL 50 (mouse) (converted)
sub-plantar oedema = experiment: Anti-inflammatory: sub-plantar oedema caused by carragenine; type: in vivo; conditions: po, rat, read-out: Percentage reduction of sub-plantar oedema; for inhibition in vivo at 50 mg/kg: 50 mg/kg/p.o.
jejunal ansa of a rabbit = experiment: Spasmolytic in vivo: contractions of the jejunal ansa caused by electric stimulation
From the text: The compounds of formula (I), administered intraduodenally are capable of reducing the contractions of the jejunal ansa of a rabbit, caused by electric stimulation.

[3] = po, read-out: Percentage reduction of stress ulcers

O=C(CCn1c(CN2CCN(CC(=O)N3CCCC3)CC2)nc2ccccc21)c1ccccc1 [73 0458, 1-(2'-benzoyleth-1' yl) 2-(4"-pyrrolidinocarbonylmethylpiperazine-1" ylmethyl) benzimidazole]
inhibition in vivo at 10 mg/kg (Shay's ulcer): 90%
inhibition in vivo at 5 mg/kg (stress ulcers; po, 5 mg/kg/p.o., read-out: Percentage reduction of stress ulcers): 77%
inhibition in vivo at 2 mg/kg (gastric secretion; Rat2, intraduodenal, 2 mg/kg/i.d.): 19%
inhibition in vivo at 100 mg/kg ([1]; intraduodenal, i.d., 100 mg/kg): 67%

CNC(=O)CN1CCN(Cc2nc3ccccc3n2CCC(=O)c2ccccc2)CC1 [74 0145]
inhibition in vivo at 15.5 mg/kg (Shay's ulcer; 15.5 mg/kg/i.d.): 100%
inhibition in vivo at 10 mg/kg (painful stretchings; 10 mg/kg/p.o.): 70%
inhibition in vivo at 7.7 mg/kg (stress ulcers; po, 7.7 mg/kg/p.o., read-out: Percentage reduction of stress ulcers): 100%
inhibition in vivo at 1.6 mg/kg (gastric secretion; intraduodenal, 1.6 mg/kg/i.d.): 88%
inhibition in vivo at 0.5 mg/kg ([1]; iv, i.v., 0.5 mg/kg): 75%
LD50 [2]: 180 mg/kg
inhibition in vivo at 10 mg/kg (sub-plantar oedema; 10 mg/kg/p.o.): 40%

CCCNC(=O)CN1CCN(Cc2nc3ccccc3n2CCC(=O)c2ccccc2)CC1 [74 0159]
inhibition in vivo at 15.1 mg/kg (Shay's ulcer; 15.1 mg/kg/i.d.): 100%
inhibition in vivo at 50 mg/kg (painful stretchings): 40%
inhibition in vivo at 7.5 mg/kg (stress ulcers; po, 7.5 mg/kg/p.o., read-out: Percentage reduction of stress ulcers): 100%
inhibition in vivo at 7.6 mg/kg (stress ulcers; po, 7.6 mg/kg/p.o., read-out: Percentage reduction of stress ulcers): 100%
inhibition in vivo at 1.5 mg/kg (gastric secretion; intraduodenal): 77%
inhibition in vivo at 5 mg/kg ([1]; iv, i.v.): 100%
LD50 [2]: 1250 mg/kg
inhibition in vivo at 50 mg/kg (sub-plantar oedema): 57%

O=C(CCn1c(CN2CCN(CC(=O)N3CCOCC3)CC2)nc2ccccc21)c1ccccc1 [74 0160]
inhibition in vivo at 15 mg/kg (Shay's ulcer; 15 mg/kg/i.d.): 99%
inhibition in vivo at 6 mg/kg (stress ulcers; po, 6 mg/kg/p.o., read-out: Percentage reduction of stress ulcers): 76%
inhibition in vivo at 1.5 mg/kg (gastric secretion; intraduodenal): 45%
LD50 [2]: 1700 mg/kg
inhibition in vivo at 50 mg/kg (sub-plantar oedema): 50%

CCCCNC(=O)CN1CCN(Cc2nc3ccccc3n2CCC(=O)c2ccccc2)CC1 [74 0186]
inhibition in vivo at 14.8 mg/kg (Shay's ulcer): 75%
inhibition in vivo at 40 mg/kg (painful stretchings; 40 mg/kg/p.o.): 77%
inhibition in vivo at 7.4 mg/kg (stress ulcers; [3]): 98%
inhibition in vivo at 1.5 mg/kg (gastric secretion; intraduodenal): 67%
inhibition in vivo at 2 mg/kg ([1]; iv, i.v., 2 mg/kg): 100%
LD50 [2]: 360 mg/kg
inhibition in vivo at 40 mg/kg (sub-plantar oedema; 40 mg/kg/p.o.): 48%

CC(C)CNC(=O)CN1CCN(Cc2nc3ccccc3n2CCC(=O)c2ccccc2)CC1 [74 0187]
inhibition in vivo at 14.8 mg/kg (Shay's ulcer): 94%
inhibition in vivo at 50 mg/kg (painful stretchings): 42%
inhibition in vivo at 7.4 mg/kg (stress ulcers; [3]): 100%
inhibition in vivo at 1.5 mg/kg (gastric secretion; intraduodenal): 78%
inhibition in vivo at 5 mg/kg ([1]; iv, i.v.): 100%
LD50 [2]: 1600 mg/kg
inhibition in vivo at 50 mg/kg (sub-plantar oedema): 47%

CCCN(CCC)C(=O)CN1CCN(Cc2nc3ccccc3n2CCC(=O)c2ccccc2)CC1 [74 0196]
inhibition in vivo at 7.3 mg/kg (Shay's ulcer): 90%
inhibition in vivo at 7.3 mg/kg (stress ulcers; po, 7.3 mg/kg/p.o., read-out: Percentage reduction of stress ulcers): 88%
inhibition in vivo at 1.5 mg/kg (gastric secretion; intraduodenal): 74%
LD50 [2]: 2100 mg/kg

CC(C)N(C(=O)CN1CCN(Cc2nc3ccccc3n2CCC(=O)c2ccccc2)CC1)C(C)C [74 0453]
inhibition in vivo at 7.3 mg/kg (Shay's ulcer): 82%
inhibition in vivo at 2.5 mg/kg ([1]; iv, i.v., 2.5 mg/kg): 100%
LD50 [2]: 1000 mg/kg

O=C(CN1CCN(Cc2nc3ccccc3n2CCC(=O)c2ccccc2)CC1)NC1CCCC1 [74 0751]
inhibition in vivo at 10 mg/kg (Shay's ulcer): 89%
ED50 (stress ulcers; oral, read-out: DE 50, stress ulcers): 11 mg/kg
inhibition in vivo at 4.5 mg/kg (gastric secretion; intraduodenal, 4.5 mg/kg/i.d.): 69%
LD50 [2]: 1100 mg/kg

Cc1ccc(C(=O)CCn2c(CN3CCN(CC(=O)NC(C)C)CC3)nc3ccccc32)cc1 [75 0009]
inhibition in vivo at 20 mg/kg (Shay's ulcer; 20 mg/kg/i.d.): 56%
inhibition in vivo at 20 mg/kg (stress ulcers; [3]): 90%
inhibition in vivo at 10 mg/kg (gastric secretion; intraduodenal): 62%
LD50 [2]: 1800 mg/kg

COc1cccc(C(=O)CCn2c(CN3CCN(CC(=O)NC(C)C)CC3)nc3ccccc32)c1 [75 0010]
inhibition in vivo at 40 mg/kg (Shay's ulcer; 40 mg/kg/i.d.): 86%
inhibition in vivo at 20 mg/kg (stress ulcers; [3]): 77%
inhibition in vivo at 25 mg/kg (gastric secretion; intraduodenal, 25 mg/kg/i.d.): 82%
LD50 [2]: 1200 mg/kg

CC(C)NC(=O)CN1CCN(Cc2nc3ccccc3n2CCC(=O)c2ccc(Cl)cc2)CC1 [75 0012]
inhibition in vivo at 10 mg/kg (Shay's ulcer): 73%
inhibition in vivo at 20 mg/kg (stress ulcers; [3]): 64%
inhibition in vivo at 10 mg/kg (gastric secretion; intraduodenal): 63%
LD50 [2]: 1300 mg/kg

NC(=O)CN1CCN(Cc2nc3ccccc3n2CCC(=O)c2ccccc2)CC1 [75 0102]
Diminution of contractions of the jejunum for more than an hour (jejunal ansa of a rabbit; 25 mg/kg/i.d.): 80%
inhibition in vivo at 10 mg/kg (Shay's ulcer): 74%
inhibition in vivo at 10 mg/kg (stress ulcers; po, 10 mg/kg/p.o., read-out: Percentage reduction of stress ulcers): 100%
inhibition in vivo at 10 mg/kg (gastric secretion; intraduodenal): 91%
LD50 [2]: 1300 mg/kg

C[N+]1(C)CCC(=C(c2ccccc2)c2ccccc2)CC1 [Diphemanil, diphemanil (methylsulfate), reference compound]
Diminution of contractions of the jejunum of a rabbit (jejunal ansa of a rabbit; 20 mg/kg/i.d.): 70%
inhibition in vivo at 100 mg/kg (stress ulcers; po, 100 mg/kg/p.o., ratio equal to 315, read-out: Percentage reduction of stress ulcers): 91%
inhibition in vivo at 50 mg/kg (gastric secretion; intraduodenal, 50 mg/kg/i.d.): 52%
LD50 [2]: 317 mg/kg
